Test system: 171881-019-R-J1-PDC complex spheroid viability
Test: Anticancer human tumor 171881-019-R-J1-PDC patient-derived invasive breast carcinoma cell line growth inhibition
Conditions: for IC50: curve of first compound; for viability, T/C: stronger effect = lower value
In short: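 Multicellular complex spheroids of tumor cells with human endothelial cells (HUVEC) and mesenchymal stem cells; the LSD1 inhibitor iadademstat was combined with standard-of-care or investigational agents. Top concentration at or near clinical Cmax, half-log dilutions; final DMSO ≤0.25%.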

[1] = second compound 0.1 µM, first compound 0.0316 µM
[2] = second compound 0.1 µM, first compound 0.1 µM
[3] = second compound 0.1 µM, first compound 0.316 µM
[4] = second compound 0.1 µM, first compound 1 µM
[5] = second compound 0.1 µM, first compound 3.16 µM
[6] = second compound 0.1 µM, first compound 10 µM
[7] = second compound 0.316 µM, first compound 0.0316 µM
[8] = second compound 0.316 µM, first compound 0.1 µM
[9] = second compound 0.316 µM, first compound 0.316 µM
[10] = second compound 0.316 µM, first compound 1 µM
[11] = second compound 0.316 µM, first compound 3.16 µM
[12] = second compound 0.316 µM, first compound 10 µM
[13] = second compound 1 µM, first compound 0.0316 µM
[14] = second compound 1 µM, first compound 0.1 µM
[15] = second compound 1 µM, first compound 0.316 µM
[16] = second compound 1 µM, first compound 1 µM
[17] = second compound 1 µM, first compound 3.16 µM
[18] = second compound 1 µM, first compound 10 µM
[19] = second compound 3.16 µM, first compound 0.0316 µM
[20] = second compound 3.16 µM, first compound 0.1 µM
[21] = second compound 3.16 µM, first compound 0.316 µM
[22] = second compound 3.16 µM, first compound 1 µM
[23] = second compound 3.16 µM, first compound 3.16 µM
[24] = second compound 3.16 µM, first compound 10 µM
[25] = second compound 10 µM, first compound 0.0316 µM
[26] = second compound 10 µM, first compound 0.1 µM
[27] = second compound 10 µM, first compound 0.316 µM
[28] = second compound 10 µM, first compound 1 µM
[29] = second compound 10 µM, first compound 3.16 µM
[30] = second compound 10 µM, first compound 10 µM
[31] = second compound 0.1 µM, first compound 0.00316 µM
[32] = second compound 0.1 µM, first compound 0.01 µM
[33] = second compound 0.316 µM, first compound 0.00316 µM
[34] = second compound 0.316 µM, first compound 0.01 µM
[35] = second compound 1 µM, first compound 0.00316 µM
[36] = second compound 1 µM, first compound 0.01 µM
[37] = second compound 3.16 µM, first compound 0.00316 µM
[38] = second compound 3.16 µM, first compound 0.01 µM
[39] = second compound 10 µM, first compound 0.00316 µM
[40] = second compound 10 µM, first compound 0.01 µM
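Also: spheroids exposed to agents for 7 days after 3 days growth.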

| Structure (SMILES) | IC50 (second compound 0.1 µM) | IC50 (second compound 0.316 µM) | IC50 (second compound 1 µM) | IC50 (second compound 3.16 µM) | IC50 (second compound 10 µM) | viability, T/C [1] | viability, T/C [2] | viability, T/C [3] | viability, T/C [4] | viability, T/C [7] | viability, T/C [8] | viability, T/C [9] | viability, T/C [10] | viability, T/C [13] | viability, T/C [14] | viability, T/C [15] | viability, T/C [16] | viability, T/C [19] | viability, T/C [20] | viability, T/C [21] | also measured |
| --- | --- | --- | --- | --- | --- | --- | --- | --- | --- | --- | --- | --- | --- | --- | --- | --- | --- | --- | --- | --- | --- |
| CC(C)c1c(-c2ccccc2)nc2c(C#N)c[nH]n2c1=O + NC1CC1c1ccc(-c2cccc(O)c2)cc1 | 4990 nM | 5400 nM | 5360 nM | 5450 nM | 4950 nM | 104% | 103% | 93% | 87.3% | 102% | 102% | 95.8% | 90.4% | 108% | 101% | 93.9% | 89.5% | 103% | 98.6% | 97% | viability, T/C [5]: 72.1%; viability, T/C [6]: 19.8%; viability, T/C [11]: 75.5%; viability, T/C [12]: 22.1%; viability, T/C [17]: 75.7%; viability, T/C [18]: 22.5%; viability, T/C [22]: 87.4%; viability, T/C [23]: 77.1%; viability, T/C [24]: 22%; viability, T/C [25]: 85.7%; viability, T/C [26]: 81.9%; viability, T/C [27]: 81.4%; viability, T/C [28]: 80.5%; viability, T/C [29]: 70.6%; viability, T/C [30]: 18.1% |
| CC1COCCN1c1cc(-c2ccnn2C)c2ccnc(-c3ccn[nH]3)c2n1 (stereo not given) + NC1CC1c1ccc(-c2cccc(O)c2)cc1 | 6.07 nM | 4.76 nM | 4.38 nM | 6.57 nM | 4.98 nM | 23.1% | 9.09% | 6.72% | 6.42% | 23.6% | 9.96% | 6.7% | 5.87% | 25.3% | 9.83% | 6.55% | 5.67% | 23.8% | 8.53% | 5.95% | viability, T/C [31]: 54.6%; viability, T/C [32]: 46.5%; viability, T/C [33]: 53.6%; viability, T/C [34]: 43.5%; viability, T/C [35]: 51.1%; viability, T/C [36]: 47%; viability, T/C [37]: 56%; viability, T/C [38]: 46.4%; viability, T/C [22]: 5.45%; viability, T/C [39]: 54.1%; viability, T/C [40]: 44%; viability, T/C [25]: 22.4%; viability, T/C [26]: 12.8%; viability, T/C [27]: 7.13%; viability, T/C [28]: 6.24% |
| COc1ccc([C@@H](O)c2cc(-c3ncnc4cc(N5CCOCC5)ccc34)c(F)cc2Cl)nn1 + NC1CC1c1ccc(-c2cccc(O)c2)cc1 | 624 nM | 672 nM | 753 nM | 804 nM | 606 nM | 100% | 99.9% | 78.9% | 30.5% | 103% | 100% | 81.2% | 34.4% | 108% | 107% | 85.9% | 39.2% | 104% | 106% | 92.1% | viability, T/C [5]: 7.18%; viability, T/C [6]: 11%; viability, T/C [11]: 8.07%; viability, T/C [12]: 11%; viability, T/C [17]: 8.76%; viability, T/C [18]: 9.94%; viability, T/C [22]: 40.8%; viability, T/C [23]: 7.82%; viability, T/C [24]: 10.7%; viability, T/C [25]: 84.8%; viability, T/C [26]: 88.6%; viability, T/C [27]: 75.2%; viability, T/C [28]: 30.6%; viability, T/C [29]: 8.18%; viability, T/C [30]: 9.78% |
| O=C(C=Cn1cnc(-c2cc(C(F)(F)F)cc(C(F)(F)F)c2)n1)NNc1cnccn1 + NC1CC1c1ccc(-c2cccc(O)c2)cc1 | < 3.16 nM | < 3.16 nM | < 3.16 nM | < 3.16 nM | < 3.16 nM | 4.97% | 2.14% | 2.1% | 1.99% | 5.36% | 2.27% | 2.08% | 1.91% | 9.98% | 2.64% | 2.11% | 1.82% | 5.43% | 2.42% | 2.5% | viability, T/C [31]: 19.1%; viability, T/C [32]: 13%; viability, T/C [33]: 21.3%; viability, T/C [34]: 14.4%; viability, T/C [35]: 23.4%; viability, T/C [36]: 16.1%; viability, T/C [37]: 25.9%; viability, T/C [38]: 17.5%; viability, T/C [22]: 2.17%; viability, T/C [39]: 25%; viability, T/C [40]: 16.5%; viability, T/C [25]: 6.08%; viability, T/C [26]: 11.4%; viability, T/C [27]: 6.91%; viability, T/C [28]: 3.16% |
| Nc1ncn(C2CC(O)C(CO)O2)c(=O)n1 (stereo not given) + NC1CCC(NC2CC2c2ccccc2)CC1 | > 1000 nM | > 1000 nM | > 1000 nM | > 1000 nM | > 1000 nM | 93.1% | 115% | 111% | 101% | 92.9% | 122% | 115% | 94.2% | 95.6% | 123% | 117% | 97.1% | 106% | 122% | 114% | viability, T/C [31]: 88.4%; viability, T/C [32]: 93.3%; viability, T/C [33]: 96%; viability, T/C [34]: 81.7%; viability, T/C [35]: 94.9%; viability, T/C [36]: 81.1%; viability, T/C [37]: 82.5%; viability, T/C [38]: 92.9%; viability, T/C [22]: 97.7%; viability, T/C [39]: 86.1%; viability, T/C [40]: 105%; viability, T/C [25]: 112%; viability, T/C [26]: 102%; viability, T/C [27]: 111%; viability, T/C [28]: 99.8% |

— PubChem BioAssay AID1918932 (Molecular Pharmacology Branch, DTP, NCI, 2023)
